Consider five compounds from US4771043A, “Steroidic aromatase inhibitors” (Farmitalia Carlo Erba, S.p.A., priority 1985, dated 1988).

One series concerns rat ovarian aromatase. Put plainly: Inhibition of rat ovarian aromatase in vivo (PMSG-treated adult female rats, oral dosing, ovarian microsomes assayed 24 hours later). To be noted: for % AROMATASE INHIBITION: rat ovarian microsomes 24 hours after dosing, versus vehicle treated group. As to the method: (§1) Aromatase inhibition by the compounds of the present invention was determined both in vitro (human placental aromatase), and in vivo (ovarian aromatase activity) in rats.
adult female rats were twice treated subcutaneously with 100 I.U. pregnant mares' serum gonadotropin (PMSG) at 4 days' interval, in order to increase ovarian aromatase activity, according to Brodie procedure [A. M. H. Brodie et al, Steroids 38, 693, 1981]. Three days after the second PMSG treatment, groups of 6 animals each were given orally the vehicle (0.5% methocel) or the inhibitor at the dose reported in the following table. Animals were killed 24 hours later, microsomes were isolated from ovaries and their aromatase activity determined using a method similar to that described above for the evaluation of the in vitro activity. The incubation were carried out for 30 minutes in 1 ml incubation volume containing 0.1 mg of microsomal proteins, 100 nM 4-[^3 H]androstenedione and 100 μM NADPH.
% inhibition of control aromatase activity was calculated.

The test system of series [1] is human placental aromatase. Put plainly: Aromatase inhibition in vitro (human placental microsomes, 3H2O release from 4-[1β,2β-3H]androstene-3,17-dione). The series is classed as biochemical. To be noted: comparison with e.g. 4-OH-A. The protocol: as §1
Aromatase inhibition in vitro was determined as follows: the enzyme system was isolated from the microsomal fraction of human placental tissue according to standard procedure. The assay of Thompson and Siiteri [E. A. Thompson and P. K. Siiteri, J. Biol. Chem. 249, 5364, 1974] which determines the rate of aromatization as measured by the liberation of ^3 H2 O from 4-[1β,2β-^3 H]androstene-3,17-dione was used. All incubations were carried out in a shaking water bath at 37° C. in air in 10 mM potassium phosphate buffer, pH 7.5, which contained 100 mM KCl, 1 mM EDTA and 1 mM dithiothreitol. The experiments were carried out in 1 ml incubation volume containing 50 nM 4-[^3 H]androstenedione, various concentrations of the inhibitors, 100 μM NADPH and 0.05 mg of microsomal proteins. After 15 minutes of incubation the reaction was stopped by the addition of chloroform (5 ml). After centrifugation at 1500×g for 5 minutes, aliquots (0.5 ml) were removed from the water phase for determination of ^3 H2 O formed. […] Aromatase inhibition in vivo was determined in rats by the following procedure: […]

The conditions of series [2]: women, R. C. Coombes et al., Lancet II, 1237, 1984; cited from earlier work.

Consider `C[C@]12C=CC(=O)C=C1CC[C@@H]1[C@@H]2CC[C@]2(C)C(=O)CC[C@@H]12` [androsta-1,4-diene-3,17-dione, reference compound], for which, in the series on rat ovarian aromatase (30 mg/kg p.o.), the “% AROMATASE INHIBITION” value was determined as 37%.
On to `C[C@]12C=CC(=O)C=C1[C@@H](N)C[C@@H]1[C@@H]2CC[C@]2(C)C(=O)CC[C@@H]12` [FCE 24968, 6α-aminoandrosta-1,4-diene-3,17-dione], for which the “% AROMATASE INHIBITION” value with rat ovarian aromatase (10 mg/kg p.o.) is 53%; with rat ovarian aromatase (30 mg/kg p.o.), 71%. Further, the “effectiveness in vivo by oral route (in words)” value (from here on “effectiveness in vivo”) in the series on rat ovarian aromatase (10 mg/kg) is “very effective”. Further, the “in vitro aromatase inhibiting potency compared with reference compounds (in words)” value in series [1] is “less potent in vitro than, e.g., 4-OH-A”.
Regarding `C[C@]12C=CC(=O)C=C1CC[C@@H]1[C@@H]2CC[C@]2(C)OC(=O)CC[C@@H]12` [testolactone, D-homo-17a-oxaandrosta-1,4-diene-3,17-dione, reference compound], the “% AROMATASE INHIBITION” value in the series with rat ovarian aromatase (30 mg/kg p.o.) is reported as 2%.
As for `C[C@]12C=CC(=O)C=C1[C@@H](N=[N+]=[N-])C[C@@H]1[C@@H]2CC[C@]2(C)C(=O)CC[C@@H]12` [FCE 24403, 6α-azido androsta-1,4-diene-3,17-dione], the “% AROMATASE INHIBITION” value with rat ovarian aromatase (10 mg/kg p.o.) came to 81%; in the series with rat ovarian aromatase (30 mg/kg p.o.) it was 89%. In the series with rat ovarian aromatase (10 mg/kg), the “effectiveness in vivo” value is “very effective”. Further, in series [1], the “in vitro aromatase inhibiting potency compared with reference compounds (in words)” value is listed as “less potent in vitro than, e.g., 4-OH-A”.
For `C[C@]12CCC(=O)C(O)=C1CC[C@@H]1[C@@H]2CC[C@]2(C)C(=O)CC[C@@H]12` [4-OH-A, 4-hydroxyandrosta-4-ene-3,17-dione, reference compound], the “% AROMATASE INHIBITION” value in the series on rat ovarian aromatase (30 mg/kg p.o.) was found to be 7%; in the series on rat ovarian aromatase (100 mg/kg p.o.), 21%. Further, the “effectiveness in vivo” value in the series on rat ovarian aromatase (100 mg/kg) is “ineffective”. Besides, in series [2], the “conjugation after oral administration (in words)” value is “extensively conjugated after oral administration”.
